Data from PMC3835334 (ACS medicinal chemistry letters, 2013).

These compounds were tested on JMAR, MDA-MB-231, SKMEL-28, DRO81-1 and MRC-5 cells (assay: not given). Details: not given.

Q: Which “Cytotoxic activity in words” value does the source give for `CC1=C(CO)C(=O)O[C@@H]([C@@H](C)[C@H]2CC[C@H]3[C@@H]4C[C@H]5O[C@]56[C@@H](OC(=O)c5ccc(Cl)cc5)C=CC(=O)[C@]6(CO)[C@H]4CC[C@]23C)C1` [Compound 10] here?
A: The value was “active”.

Q: How did the “Cytotoxic activity in words” value turn out when `CC1=C(COC(=O)c2ccc(Cl)cc2)C(=O)O[C@@H]([C@@H](C)[C@H]2CC[C@H]3[C@@H]4C[C@H]5O[C@]56[C@@H](O)C=CC(=O)[C@]6(COC(=O)c5ccc(Cl)cc5)[C@H]4CC[C@]23C)C1` [Compound 11] was run?
A: Its value is “active”.

Q: `CC(=O)OCC1=C(C)C[C@H]([C@@H](C)[C@H]2CC[C@H]3[C@@H]4C[C@H]5O[C@]56[C@@H](OC(=O)N(C)C)C=CC(=O)[C@]6(COC(C)=O)[C@H]4CC[C@]23C)OC1=O` [Compound 15] was tested. Which “Increased cytotoxicity compared to 1” value did it give?
A: The value was 3–5 times.

Q: `CC(=O)OCC1=C(C)C[C@H]([C@@H](C)[C@H]2CC[C@H]3[C@@H]4C[C@H]5O[C@]56CC=CC(=O)[C@]6(COC(C)=O)[C@H]4CC[C@]23C)OC1=O` [Compound 17, Jaborosalactone V diacetate] was tested. Which “Cytotoxic activity in words” value did it give?
A: Its value is “equipotent to withaferin A”.

Q: For `CC(=O)OCC1=C(C)C[C@H]([C@@H](C)[C@H]2CC[C@H]3[C@@H]4C[C@@H](O)C5=CC=CC(=O)[C@]5(COC(C)=O)[C@H]4CC[C@]23C)OC1=O` [Compound 18], which “Cytotoxic activity in words” value is on record?
A: Its value is “abolished”.

Q: With `CC1=C(CO)C(=O)O[C@@H]([C@@H](C)[C@H]2CC[C@H]3[C@@H]4C[C@H]5O[C@]56[C@@H](O)C=C(I)C(=O)[C@]6(CO)[C@H]4CC[C@]23C)C1` [Compound 21] as the compound, how does the “Cytotoxic activity in words” value read?
A: Its value is “very weak activity”.

Each compound was assayed on JMAR, MDA-MB-231, SKMEL-28, DRO81-1 and MRC-5 cells (assay: cells). Details: read-out: IC50 values against melanoma and carcinoma cells.

Q: `CC(=O)OCC1=C(C)C[C@H]([C@@H](C)[C@H]2CC[C@H]3[C@@H]4C[C@@H](O)[C@@]5(Cl)CC=CC(=O)[C@]5(COC(C)=O)[C@H]4CC[C@]23C)OC1=O` [Compound 19] was tested. Which IC50 did it give?
A: Its IC50 is 800 to 2160 nM.

Same assay, conditions: read-out: IC50 values over all cell lines tested

Q: How did the IC50 turn out when `CCC(=O)OCC1=C(C)C[C@H]([C@@H](C)[C@H]2CC[C@H]3[C@@H]4C[C@H]5O[C@]56[C@@H](OC(=O)CC)C=CC(=O)[C@]6(COC(=O)CC)[C@H]4CC[C@]23C)OC1=O` [Compound 9, withalongolide A 4,19,27-propionate] was run?
A: Its IC50 is 130 to 1000 nM.

Q: How did the IC50 turn out when `CC1=C(COC(=O)c2ccc(Cl)cc2)C(=O)O[C@@H]([C@@H](C)[C@H]2CC[C@H]3[C@@H]4C[C@H]5O[C@]56[C@@H](OC(=O)c5ccc(Cl)cc5)C=CC(=O)[C@]6(CO)[C@H]4CC[C@]23C)C1` [Compound 12] was run?
A: The IC50 was greater than 10000 nM.

Q: How did the IC50 turn out when `CC1=C(COC(=O)c2ccc(Cl)cc2)C(=O)O[C@@H]([C@@H](C)[C@H]2CC[C@H]3[C@@H]4C[C@H]5O[C@]56[C@@H](OC(=O)c5ccc(Cl)cc5)C=CC(=O)[C@]6(COC(=O)c5ccc(Cl)cc5)[C@H]4CC[C@]23C)C1` [Compound 13] was run?
A: Its IC50 is greater than 10000 nM.

Q: Which IC50 does the source give for `CC(=O)OC[C@]12C(=O)C=C[C@H](OC(=O)c3ccc(Cl)cc3)[C@]13O[C@@H]3C[C@H]1[C@@H]3CC[C@H]([C@H](C)[C@H]4CC(C)=C(COC(=O)c5ccc(Cl)cc5)C(=O)O4)[C@@]3(C)CC[C@@H]12` [Compound 16] here?
A: Its IC50 is greater than 10000 nM.

Q: How did the IC50 turn out when `CC(=O)OCC1=C(C)C[C@H]([C@@H](C)[C@H]2CC[C@H]3[C@@H]4C[C@@H](O)C5=CC=CC(=O)[C@]5(COC(C)=O)[C@H]4CC[C@]23C)OC1=O` [Compound 18] was run?
A: The IC50 was greater than 10000 nM.

Q: With `CC(=O)OCC1=C(C)C[C@H]([C@@H](C)[C@H]2CC[C@H]3[C@@H]4C[C@@H](OC(C)=O)C5=CC=CC(=O)[C@]5(COC(C)=O)[C@H]4CC[C@]23C)OC1=O` [Compound 20] as the compound, how does the IC50 read?
A: Its IC50 is greater than 10000 nM.

Q: How did the IC50 turn out when `CC(=O)OCC1=C(C)C[C@H]([C@@H](C)[C@H]2CC[C@H]3[C@@H]4C[C@H]5O[C@]56[C@@H]5C=CC(=O)[C@]6(COC(=O)CC/C=C/CCC(=O)O5)[C@H]4CC[C@]23C)OC1=O` [Compound 24] was run?
A: Its IC50 is 205 to 965 nM.
